Patent publication US20250230147A1, “LACTAMS AS CBL-B INHIBITORS” (Genentech, Inc., priority 2021, published 2025)
Structures can show the parent of a compound that is named as a salt.

Columns and labels:
[1] = biological target: Cbl-b (Homo sapiens (Human), UniProt Q13191); assay: Cbl-b LCK Ub TR-FRET assay (Cbl-b Lck HTRF); format: biochemical
How it was run: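 TR-FRET (340 nm excitation, 615/665 nm emission) read after adding HA-ubiquitin–UBE2D2 thioester, anti-HA-D2 and streptavidin-Eu. Beforehand, compounds incubated 60 min with biotinylated Cbl-b, then 90 min with His-LCK and ATP (1 mM in 2× mix); IC50 from 10 concentrations, DMSO high and no-LCK low controls.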

[2] = biological target: c-Cbl (Homo sapiens (Human), UniProt P22681); assay: C-Cbl LCK Ub TR-FRET assay (c-cbl Lck HTRF); format: biochemical; conditions: for (fold-selectivity): C-cbl Lck HTRF IC50 relative to Cbl-b Lck HTRF IC50
How it was run: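 Detection reagents added, brief spin, 20 min RT. IC50 fit normalized to no-LCK (low) and DMSO (high) controls.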

Sequence of Cbl-b (Q13191 40-426): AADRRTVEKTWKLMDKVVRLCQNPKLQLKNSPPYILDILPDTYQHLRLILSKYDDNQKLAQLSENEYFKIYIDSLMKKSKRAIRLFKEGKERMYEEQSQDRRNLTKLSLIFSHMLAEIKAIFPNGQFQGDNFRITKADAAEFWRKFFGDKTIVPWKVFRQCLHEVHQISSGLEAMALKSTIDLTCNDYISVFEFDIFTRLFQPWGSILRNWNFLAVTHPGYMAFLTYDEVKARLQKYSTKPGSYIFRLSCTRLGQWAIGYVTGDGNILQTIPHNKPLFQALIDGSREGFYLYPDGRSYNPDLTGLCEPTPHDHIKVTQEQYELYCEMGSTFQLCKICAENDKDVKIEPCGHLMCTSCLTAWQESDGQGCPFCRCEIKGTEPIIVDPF
Sequence of c-Cbl (P22681 47-435): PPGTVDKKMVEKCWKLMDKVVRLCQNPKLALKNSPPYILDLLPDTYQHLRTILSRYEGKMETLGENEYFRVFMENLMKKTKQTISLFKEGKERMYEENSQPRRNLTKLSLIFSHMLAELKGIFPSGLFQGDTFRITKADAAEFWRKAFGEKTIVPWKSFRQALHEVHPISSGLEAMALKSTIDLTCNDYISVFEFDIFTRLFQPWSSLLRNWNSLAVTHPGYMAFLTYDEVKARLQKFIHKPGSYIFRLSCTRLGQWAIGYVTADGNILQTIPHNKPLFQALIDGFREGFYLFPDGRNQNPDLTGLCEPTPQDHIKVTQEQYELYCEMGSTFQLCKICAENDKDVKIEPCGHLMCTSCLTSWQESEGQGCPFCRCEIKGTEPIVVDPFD

Compound | IC50 [1] | IC50 [2] | (fold-selectivity) [2]
C[C@H](c1cc2c(c(C(F)(F)F)c1)CN(c1cccc(C3([C@H](F)c4nncn4C)COC3)c1)C2=O)N1CC(C)(F)C1 [Compound 111, 2-(3-(3-((S)-fluoro(4-methyl-4H-1,2,4-triazol-3-yl)methyl)oxetan-3-yl)phenyl)-6-((R)-1-(3-fluoro-3-methylazetidin-1-yl)ethyl)-4-(trifluoromethyl)isoindolin-1-one] | 190 nM | 340 nM | 1.8x
Cn1cnnc1CC1(c2cc(NC3CCCC3O)nc(N3Cc4c(cccc4C(F)(F)F)C3=O)c2)COC1 (centres unmarked) [Compound 489, 2-(6-((2-hydroxycyclopentyl)amino)-4-(3-((4-methyl-4H-1,2,4-triazol-3-yl)methyl)oxetan-3-yl)pyridin-2-yl)-4-(trifluoromethyl)isoindolin-1-one] | 5000 nM | 19500 nM | (3.8x)
Cn1cnnc1[C@H](F)C1(c2cccc(N3Cc4c(cc(CNC5CCC5)cc4C(F)(F)F)C3=O)c2)COC1 [Compound 227, (R)-6-((Cyclobutylamino)methyl)-2-(3-(3-(fluoro(4-methyl-4H-1,2,4-triazol-3-yl)methyl)oxetan-3-yl)phenyl)-4-(trifluoromethyl)isoindolin-1-one formate] | 16 nM | 13 nM | –
Cn1cnnc1[C@H](F)C1(c2cccc(N3Cc4c(cc(CN5CC(C)(O)C5)cc4C(F)(F)F)C3=O)c2)COC1 [Compound 161, (R)-2-(3-(3-(fluoro(4-methyl-4H-1,2,4-triazol-3-yl)methyl)oxetan-3-yl)phenyl)-6-((3-hydroxy-3-methylazetidin-1-yl)methyl)-4-(trifluoromethyl)isoindolin-1-one] | 62 nM | 110 nM | 1.7x
CC(=O)N1CCC(CNc2cc(C3(Cc4nncn4C)CCC3)cc(N3Cc4c(cc(CNC5(C)CCC5)cc4C(F)(F)F)C3=O)n2)CC1.Cl [Compound 329, 2-(6-(((1-acetylpiperidin-4-yl)methyl)amino)-4-(1-((4-methyl-4H-1,2,4-triazol-3-yl)methyl)cyclobutyl)pyridin-2-yl)-6-(((1-methylcyclobutyl)amino)methyl)-4-(trifluoromethyl)isoindolin-1-one hydrochloride] | 98 nM | 65 nM | (0.66x)
Cn1cnnc1CC1(c2cccc(N3Cc4c(cc(CN5CCNCC5)cc4C(F)(F)F)C3=O)c2)CC(F)(F)C1 [Compound 437, 2-(3-(3,3-difluoro-1-((4-methyl-4H-1,2,4-triazol-3-yl)methyl)cyclobutyl)phenyl)-6-(piperazin-1-ylmethyl)-4-(trifluoromethyl)isoindolin-1-one] | 62 nM | 900 nM | (0.97x)
Cn1cnnc1CC1(c2cc(OC3CCCC3)nc(N3Cc4c(cc(CNC5(C)CCC5)cc4C(F)(F)F)C3=O)c2)COC1 [Compound 294, 2-(6-(cyclopentyloxy)-4-(3-((4-methyl-4H-1,2,4-triazol-3-yl)methyl)oxetan-3-yl)pyridin-2-yl)-6-(((1-methylcyclobutyl)amino)methyl)-4-(trifluoromethyl)isoindolin-1-one] | 9.5 nM | 16 nM | (1.7x)
CCCNCc1cc2c(c(C(F)(F)F)c1)CN(c1cccc(C3([C@@H](F)c4nncn4C)CC(F)(F)C3)c1)C2=O [Compound 445, (R)-2-(3-(3,3-difluoro-1-(fluoro(4-methyl-4H-1,2,4-triazol-3-yl)methyl)cyclobutyl)phenyl)-6-((propylamino)methyl)-4-(trifluoromethyl)isoindolin-1-one] | 26 nM | 33 nM | (1.3x)
Cc1cccc2c1CN(c1cccc(C3([C@@H](F)c4nncn4C)COC3)c1)C2=O [Compound 208, (R)-2-(3-(3-(fluoro(4-methyl-4H-1,2,4-triazol-3-yl)methyl)oxetan-3-yl)phenyl)-4-methylisoindolin-1-one] | 1400 nM | 2100 nM | 1.5x
CC(C)[C@H]1CN(C)CCN1Cc1cc2c(c(C(F)(F)F)c1)CN(c1cccc(C3([C@H](F)c4n[nH]cc4C(F)(F)F)COC3)c1)C2=O [Compound 376, 2-(3-(3-((S)-fluoro(4-(trifluoromethyl)-1H-pyrazol-3-yl)methyl)oxetan-3-yl)phenyl)-6-(((S)-2-isopropyl-4-methylpiperazin-1-yl)methyl)-4-(trifluoromethyl)isoindolin-1-one] | 20000 nM | 20000 nM | (1.0x)
Cn1cnnc1CC1(c2cccc(N3Cc4c(cc(CNC5(C)CCC5)cc4C(F)(F)F)C3=O)c2)COC1 [Compound 301, 2-(3-(3-((4-methyl-4H-1,2,4-triazol-3-yl)methyl)oxetan-3-yl)phenyl)-6-(((1-methylcyclobutyl)amino)methyl)-4-(trifluoromethyl)isoindolin-1-one] | 12 nM | 10 nM | (0.86x)
Cn1cnnc1[C@H](F)C1(c2cccc(N3Cc4c(cc(CN5CC(C)(CF)C5)cc4C(F)(F)F)C3=O)c2)COC1 [Compound 76, (R)-2-(3-(3-(fluoro(4-methyl-4H-1,2,4-triazol-3-yl)methyl)oxetan-3-yl)phenyl)-6-((3-(fluoromethyl)-3-methylazetidin-1-yl)methyl)-4-(trifluoromethyl)isoindolin-1-one] | 52 nM | 82 nM | 1.6x
Cn1cnnc1[C@H](F)C1(c2cccc(N3Cc4c(cc([C@H](N)C5CCC5)cc4C(F)(F)F)C3=O)c2)COC1 [Compound 392, 6-((R)-amino(cyclobutyl)methyl)-2-(3-(3-((R)-fluoro(4-methyl-4H-1,2,4-triazol-3-yl)methyl)oxetan-3-yl)phenyl)-4-(trifluoromethyl)isoindolin-1-one] | 13 nM | 15 nM | (1.1x)
CN1C[C@@H]2C[C@H]1CN2Cc1cc2c(c(C(F)(F)F)c1)CN(c1cccc(C3(Cc4nncn4C)CC(F)(F)C3)c1)C2=O [Compound 414, 2-(3-(3,3-difluoro-1-((4-methyl-4H-1,2,4-triazol-3-yl)methyl)cyclobutyl)phenyl)-6-(((1S,4S)-5-methyl-2,5-diazabicyclo[2.2.1]heptan-2-yl)methyl)-4-(trifluoromethyl)isoindolin-1-one] | 88 nM | 68 nM | (0.77x)
CC(C)C1(O)CN(Cc2cc3c(c(C(F)(F)F)c2)CN(c2cccc(C4([C@@H](F)c5nncn5C)COC4)c2)C3=O)C1 [Compound 183, (R)-2-(3-(3-(fluoro(4-methyl-4H-1,2,4-triazol-3-yl)methyl)oxetan-3-yl)phenyl)-6-((3-hydroxy-3-isopropylazetidin-1-yl)methyl)-4-(trifluoromethyl)isoindolin-1-one] | 57 nM | 120 nM | 2.2x
Cn1cnnc1CC1(c2cccc(N3Cc4c(cc(CN5CCN[C@@H](C6CC6)C5)cc4C(F)(F)F)C3=O)c2)CC(F)(F)C1 [Compound 431, (S)-6-((3-cyclopropylpiperazin-1-yl)methyl)-2-(3-(3,3-difluoro-1-((4-methyl-4H-1,2,4-triazol-3-yl)methyl)cyclobutyl)phenyl)-4-(trifluoromethyl)isoindolin-1-one] | 48 nM | 42 nM | (0.87x)
